Experimental data from paper PMC10065799, “High-throughput profiling of sequence recognition by tyrosine kinases and SH2 domains using bacterial peptide display” (eLife, 2023).

Experiments:
EPHB2 kinase domain = assay: pTyr-Var library bacterial peptide display kinase screen (enrichment scores); assay type: biochemical, human
SHP2 C-SH2 domain = assay: pTyr-Var library SH2 domain screen with SH2-dynabeads (enrichment scores)
c-Src SH2 domain = c-Src SH2 domain (Homo sapiens, UniProt P12931); assay: as above; settings: sheet c-Src
FGFR3 kinase domain = assay: pTyr-Var library bacterial peptide display kinase screen (enrichment scores); assay type: biochemical, human
Jak2 = assay: as above; assay type: biochemical, human
Hck kinase domain = assay: as above; assay type: biochemical, human
[1] = tested on: 4G10 Platinum pan-phosphotyrosine antibody; assay: Phosphorylated pTyr-Var library selection with biotinylated pan-phosphotyrosine antibody; assay type: binding, mouse; settings: enrichment score, sheet SH2-vs-peptide
FGFR1 kinase domain = assay: pTyr-Var library bacterial peptide display kinase screen (enrichment scores); assay type: biochemical, human
Grb2 SH2 domain = assay: pTyr-Var library SH2 domain screen with SH2-dynabeads (enrichment scores)
AncSZ kinase domain = assay: pTyr-Var library bacterial peptide display kinase screen (enrichment scores); assay type: biochemical
c-Src kinase domain = c-Src kinase domain (Homo sapiens, UniProt P12931); assay: as above; assay type: biochemical
c-Abl kinase domain = molecular target: T1, c-Abl kinase domain (Mus musculus, UniProt P00520); assay: as above; assay type: biochemical
T1 sequence (P00520 242-493 limits assumed): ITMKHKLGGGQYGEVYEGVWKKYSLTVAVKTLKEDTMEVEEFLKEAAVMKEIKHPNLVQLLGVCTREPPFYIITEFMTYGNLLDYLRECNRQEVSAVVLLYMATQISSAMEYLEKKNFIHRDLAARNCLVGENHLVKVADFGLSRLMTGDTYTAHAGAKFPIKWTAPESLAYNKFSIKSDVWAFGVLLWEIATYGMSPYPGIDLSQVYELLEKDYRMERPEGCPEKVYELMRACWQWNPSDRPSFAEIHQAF

Fes = assay: as above; assay type: biochemical; settings: mean of log2 of enrichment over R1-R6
Fyn kinase domain = assay: as above; assay type: biochemical, human
MERTK kinase domain = assay: as above; assay type: biochemical, human
EPHB1 kinase domain = assay: as above; assay type: biochemical, human
Fer kinase domain = assay: as above; assay type: biochemical, mouse
[2] = mean of log2 enrichment of reference peptide, n = 4
[3] = pTyr-Var library, reference peptide enrichment, mean of n = 4
[4] = mean of log2 enrichment of reference peptide, n = 5
[5] = pTyr-Var library, reference peptide enrichment, mean of n = 5
[6] = pTyr-Var library, enrichment score, replicate 1
[7] = pTyr-Var library, enrichment score, replicate 3
[8] = pTyr-Var library, enrichment score, replicate 4
[9] = mean of log2 of enrichment over R1-R4

mean of log2(reference) (EPHB2 kinase domain; [2]): -0.9971 | ref. mean (EPHB2 kinase domain; [3]): 0.5335 | mean of log2(reference) (c-Src SH2 domain; mean of log2 enrichment of reference peptide, R1-R3): -1.13 | ref. mean (c-Src SH2 domain; reference peptide, mean of R1-R3): 0.4875 | mean of log2(reference) (FGFR3 kinase domain; [4]): -0.5381 | ref. mean (FGFR3 kinase domain; [5]): 0.7165 | Jak2 mean of log2(enrichment) (Jak2; mean of log2 of enrichment over R1-R3): 0.02155 | Jak2 enrich. R1 (Jak2; [6]): 0.9714 | Jak2 enrich. R3 (Jak2; [7]): 1.09 | Hck mean of log2(enrichment) (Hck kinase domain; mean of log2(variant) / mean of log2(reference), R1-R4): 0.5689 | Hck enrich. R1 (Hck kinase domain; [6]): 0.9245 | Hck enrich. R3 (Hck kinase domain; [7]): 0.4813 | Hck enrich. R4 (Hck kinase domain; [8]): 0.2133 | mean of log2(reference) (FGFR1 kinase domain; [4]): -0.9619 | ref. mean (FGFR1 kinase domain; [5]): 0.5188 | AncSZ mean of log2(enrichment) (AncSZ kinase domain; mean of log2 of enrichment over R1-R5): -0.07806 | AncSZ enrich. R1 (AncSZ kinase domain; [6]): 1.096 | AncSZ enrich. R3 (AncSZ kinase domain; [7]): 1.043 | AncSZ enrich. R4 (AncSZ kinase domain; [8]): 0.9321 | AncSZ enrich. R5 (AncSZ kinase domain; pTyr-Var library, enrichment score, replicate 5): 0.7233 | c-Src mean of log2(enrichment) (c-Src kinase domain; [9]): -1.224 | c-Src enrich. R1 (c-Src kinase domain; [6]): 0.458 | c-Src enrich. R3 (c-Src kinase domain; [7]): 0.3437 | c-Src enrich. R4 (c-Src kinase domain; [8]): 0.4348 | c-Abl mean of log2(enrichment) (c-Abl kinase domain; [9]): -0.4566 | c-Abl enrich. R1 (c-Abl kinase domain; [6]): 0.7622 | c-Abl enrich. R3 (c-Abl kinase domain; [7]): 0.701 | c-Abl enrich. R4 (c-Abl kinase domain; [8]): 0.6553 | Fes mean of log2(enrichment) (Fes): 0.1816 | Fyn mean of log2(enrichment) (Fyn kinase domain; [9]): -1.315 | Fyn enrich. R1 (Fyn kinase domain; [6]): 0.792 | Fyn enrich. R3 (Fyn kinase domain; [7]): 0.3214 | Fyn enrich. R4 (Fyn kinase domain; [8]): 0.1749 | mean of log2(reference) (MERTK kinase domain; [2]): -1.387 | ref. mean (MERTK kinase domain; [3]): 0.3952 | mean of log2(reference) (EPHB1 kinase domain; [2]): -0.6213 | ref. mean (EPHB1 kinase domain; [3]): 0.6707 | Fer mean of log2(enrichment) (Fer kinase domain; [9]): -1.082 | Fer enrich. R1 (Fer kinase domain; [6]): 0.5665 | Fer enrich. R3 (Fer kinase domain; [7]): 0.4786 | Fer enrich. R4 (Fer kinase domain; [8]): 0.5652
Sequence: DRVALYIAREG [AACS_Y117]
mean of log2(reference) (SHP2 C-SH2 domain; SHP2-C SH2, mean of log2 enrichment of reference, R1-R3): -0.1513 | ref. mean (SHP2 C-SH2 domain; reference peptide enrichment score, SHP2-C SH2, mean of R1-R3): 0.928 | 4G10 (mean) [1]: 0.8696 | mean of log2(reference) (Grb2 SH2 domain; Grb2 SH2, mean of log2 enrichment of reference, R1-R3): -0.1768 | ref. mean (Grb2 SH2 domain; reference peptide enrichment score, Grb2 SH2, mean of R1-R3): 0.8958
